As usually defined, the IC50 is the concentration that inhibits the measured activity by half. As usually defined, the melting point is the temperature of the solid-liquid transition.

Consider 32 molecules from patent US8288549B2, “Glycine B antagonist” (Merz Pharma GmbH & Co. KGaA, priority 2008, dated 2012).

Where a name gives a salt, the structure may show the parent alone.

One data set addresses T1, NMDA receptor glycine B site (Rattus norvegicus, UniProt P35439).
T1 construct: Hippocampi are then isolated from the brains of at least 8 embryos after decapitation; endogenous in cells; host or cells: primary cultured hippocampal neurons from E20 Sprague-Dawley rat embryos, 11-15 DIV
In words: Whole cell patch-clamp recordings in cultured rat hippocampal neurons (NMDA/D-Serine evoked currents). It is filed as cell-based. As to conditions: NMDA (200 μM) and D-Serine (1 μM), holding potential −70 mV, read-out: NMDA-PC-r-HIC-NAM - IC50. On the procedure:
Antagonistic potencies of the test compounds are functionally evaluated using electrophysiological whole cell patch-clamp recordings and/or fluorometric intracellular Ca^2+-imaging (FLIPR) screens.
Cell preparation is performed as described by Parsons, et al. (Neuropharmacology, 1998, 37(6), 719-727). The female Sprague-Dawley rat is anaesthetised by placing in a saturated CO2-euthanasia chamber under further quiet CO2-influx. Under these conditions the rat loses consciousness after a few seconds and is then sacrificed by cervical dislocation. After opening the abdominal cavity, embryos (E20) are removed and stored in ice cold Ca^2+- and Mg^2+-free Hank's Buffered Salt Solution (pH 7.3), containing 4 g/l glucose (HBSS-CMF). Hippocampi are then isolated from the brains of at least 8 embryos after decapitation, transferred into ice cold HBSS-CMF and washed 3 to 4 times.
Hippocampi are pre-incubated for 8 min with a 0.66% trypsin (Sigma-Aldrich) and 0.1% (20 U/ml) DNAase solution (Sigma-Aldrich) in Ca^2+-free Phosphate Buffered Saline (PBS-CF) and washed 3 times with HBSS-CMF. Cells are then mechanically dissociated by trituration in a PBS-CF solution containing 0.05% (10 U/ml) DNAase and 0.3% of the trypsin inhibitor ovomucoid (all from Sigma-Aldrich). The cells are then centrifuged at 180×g for 10 minutes, and the cell pellet re-suspended in basal Minimum essential medium (MEM, Invitrogen, Karlsruhe, Germany), again carefully triturated to ensure maximal dissociation and finally plated in the flexiPERM inserts (Thermo Fisher Scientific, Langenselbold, Germany) at a density of 15×10^3 cells/cm^2 (0.5 ml/insert) onto poly-DL-ornithine (Sigma) and mouse laminin (Invitrogen) pre-coated plastic petri dishes. After 1 hour the cells become attached to the bottom of the dish and the inserts may be removed. The cells are then nourished with 2 ml MEM supplemented with 5% foetal calf serum (FCS) and 5% horse serum and incubated at 37° C. with 95% air and 5% CO2 at 95% humidity. After 4 days in vitro (DIV) further glial mitosis is inhibited by adding 10 μl of AraC (5 μM endconcentration). The medium is completely exchanged after an additional 2 DIV and again, but only partly (50%), after 8 DIV. The cells are used for electrophysiological recordings after 11-15 DIV.
Cells are visualised using an inverted microscope and selected for patching based upon their position and morphology. Voltage clamp recordings are made in the whole cell configuration of the patch clamp technique at a holding potential of −70 mV with the aid of an EPC-10 amplifier in combination with pipette manipulator. Patch clamp pipettes are pulled from borosilicate glass using a horizontal puller (P-97 Puller, Sutter Instruments, USA) and, when filled with intracellular solution, have resistances of 1-4 MΩ.
Solutions are delivered via a home-made gravity driven very fast perfusion system (<10 ms) including valves to switch flow on and off in combination with a stepper motor-driven double-barreled theta glass application pipette in order to expose cells to either agonist-free or agonist-containing solutions in presence or absence of antagonist.
The intracellular solution used consists of: 120 mM CsCl, 10 mM EGTA, 1 mM MgCl2, 200 μM CaCl2, 10 mM glucose and 22 mM tetraethyl ammonium chloride (TEA-CL). The corresponding extracellular bath solution contains: 140 mM NaCl, 3 mM KCl, 10 mM glucose, 10 mM HEPES, 1.5 mM CaCl2 and 4.5 mM sucrose (all from Sigma-Aldrich) pH 7.3, and is supplemented with 0.3 μM tetrodotoxin (TTX, Tocris, Bristol, U.K.) to block voltage-activated sodium channels and 0.25 μM bicuculline (Sigma-Aldrich) to block GABAA receptors. […]
In the case of `O=C(O)c1cc2cc(Cl)c(Cl)cc2nc1N[C@H](Cc1c[nH]c2ccccc12)C(=O)O` [Example 36, 2-[(R)-1-Carboxy-2-(1H-indol-3-yl)-ethylamino]-6,7-dichloro-quinoline-3-carboxylic acid], the IC50 was found to be 1.15 µM. Still for that read-out and setting: then `O=C(O)c1cc2cc(Cl)ccc2nc1NC(Cc1ccccn1)C(=O)O` (centres unmarked) [Example 149, 2-(1-Carboxy-2-pyridin-2-yl-ethylamino)-6-chloro-quinoline-3-carboxylic acid], with 0.17 µM; and `O=C(O)c1cc2cc(Cl)ccc2nc1N[C@@H](Cc1ccc(Oc2ccc3c(-c4ccccc4)nccc3n2)cc1)C(=O)O` [Example 130, 2-{(S)-1-Carboxy-2-[4-(5-phenyl-[1,6]naphthyridin-2-yloxy)-phenyl]-ethylamino}-6-chloro-quinoline-3-carboxylic acid], with 0.19 µM.

With `O=C(O)c1cc2cc(Cl)ccc2nc1NC(Cc1ccc(Nc2ccc3ccccc3n2)cc1)C(=O)O` (centres unmarked) [Example 108, 2-{1-Carboxy-2-[4-(quinolin-2-ylamino)-phenyl]-ethylamino}-6-chloro-quinoline-3-carboxylic acid], the IC50 came out at 0.56 µM.

Regarding `O=C(O)c1cc2cc(Cl)ccc2nc1N[C@@H](Cc1ccc(Cl)cc1)C(=O)O` [Example 23, 2-[(S)-1-Carboxy-2-(4-chloro-phenyl)-ethylamino]-6-chloro-quinoline-3-carboxylic acid], the IC50 was found to be 0.898 µM. With `O=C(O)c1cc2cc(Cl)ccc2nc1N[C@H](Cc1ccccc1)C(=O)O` [Example 6, 2-((R)-1-Carboxy-2-phenyl-ethylamino)-6-chloro-quinoline-3-carboxylic acid], the IC50 came out at 0.534 µM. In the case of `O=C(O)c1cc2cc(Cl)cc(Cl)c2nc1NC(Cc1cccc(F)c1)C(=O)O` (centres unmarked) [Example 115, 2-[1-Carboxy-2-(3-fluoro-phenyl)-ethylamino]-6,8-dichloro-quinoline-3-carboxylic acid], the IC50 was 0.51 µM. On the same count and under the same terms, then `Cn1cc(C[C@H](Nc2nc3ccc(Cl)cc3cc2C(=O)O)C(=O)O)c2ccccc21` [Example 15, 2-[(S)-1-Carboxy-2-(1-methyl-1H-indol-3-yl)-ethylamino]-6-chloro-quinoline-3-carboxylic acid], with 1.36 µM; and `O=C(O)c1cc2cc(Cl)ccc2nc1N[C@@H](Cc1ccc(O)cc1)C(=O)O` [Example 34, 2-[(S)-1-Carboxy-2-(4-hydroxy-phenyl)-ethylamino]-6-chloro-quinoline-3-carboxylic acid], with 1.67 µM.

Test system in the next data set: not given
Test: not given
Conditions: not given
Turning to `O=C(O)c1cc2cc(Cl)ccc2nc1NC(Cc1cccs1)C(=O)O` (centres unmarked) [Example 83, 2-(1-Carboxy-2-thiophen-2-yl-ethylamino)-6-chloro-quinoline-3-carboxylic acid], the melting point is > 250 °C (dec.). `O=C(O)c1cc2cc(Cl)ccc2nc1NC(Cc1ccc(C#Cc2ccccc2)cc1)C(=O)O` (centres unmarked) [Example 62, 2-[1-Carboxy-2-(4-phenylethynyl-phenyl)-ethylamino]-6-chloro-quinoline-3-carboxylic acid] displayed a melting point of 164 to 173 °C. Same read-out and setting: then `Br.Br.NCCCC[C@H](Nc1nc2ccc(Cl)cc2cc1C(=O)O)C(=O)O`, with 174 to 182 °C; and `O=C(O)c1cc2cc(Cl)ccc2nc1NC(Cc1ccc(O)c(F)c1)C(=O)O` (centres unmarked) [Example 52, 2-[1-Carboxy-2-(3-fluoro-4-hydroxy-phenyl)-ethylamino]-6-chloro-quinoline-3-carboxylic acid], with > 160 °C (dec.). Consider `O=C(O)c1cc2cc(Cl)ccc2nc1NC(CCc1ccccc1)C(=O)O` (centres unmarked) [Example 28, 2-(1-Carboxy-3-phenyl-propylamino)-6-chloro-quinoline-3-carboxylic acid], for which the melting point was 179 to 182 °C (dec.). Same read-out and setting: then `Nc1cc(C[C@H](Nc2nc3ccc(Cl)cc3cc2C(=O)O)C(=O)O)ccc1O`, with greater than 250 °C; and `O=C(O)c1cccc(CC(Nc2nc3ccc(Cl)cc3cc2C(=O)O)C(=O)O)c1` (centres unmarked), with > 250 °C (dec.); and `O=C(O)c1cc2cc(Cl)ccc2nc1N[C@@H](Cc1ccc(O)c(Cl)c1)C(=O)O`, with 150 to 175 °C (dec.).

As for `O=C(O)c1cc2cc(Cl)ccc2nc1NC(C(=O)O)C(C(=O)O)c1cc(F)cc(F)c1` (centres unmarked) [Example 136, 2-(3-Carboxy-6-chloro-quinolin-2-ylamino)-3-(3,5-difluoro-phenyl)-succinic acid], the melting point was 230 to 250 °C (dec.). Take `COc1cccc(CC(Nc2nc3ccc(Cl)cc3cc2C(=O)O)C(=O)O)c1` (centres unmarked): the melting point is 165 to 170 °C (dec.). In the case of `O=C(O)c1cc2cc(Cl)ccc2nc1NC(Cc1cccc(F)c1)C(=O)O` (centres unmarked), the melting point was in the range of 177 to 181 °C. `COc1ccccc1CC(Nc1nc2ccc(Cl)cc2cc1C(=O)O)C(=O)O` (centres unmarked): the melting point was > 180 °C (dec.). In the case of `O=C(O)c1cc2cc(Cl)ccc2nc1N[C@@H](Cc1ccc(Oc2ncccc2C(=O)O)cc1)C(=O)O` (as salt: salt) [Example 100, 2-{(S)-1-Carboxy-2-[4-(3-carboxy-pyridin-2-yloxy)-phenyl]-ethylamino}-6-chloro-quinoline-3-carboxylic acid], the melting point was > 166 °C (dec.). Consider `O=C(O)c1cc2cc(Cl)ccc2nc1NC(Cc1cccc(CC(Nc2nc3ccc(Cl)cc3cc2C(=O)O)C(=O)O)c1)C(=O)O` (centres unmarked) [Example 82, 2-{2-[3-[2-(3-Carboxy-6-chloro-quinolin-2-yl)amino-2-carboxy-ethyl]-phenyl]-1-carboxy-ethylamino}-6-chloro-quinoline-3-carboxylic acid], for which the melting point is > 185 °C (dec.). Same read-out and setting: next, `Nc1ccc(CC(Nc2nc3ccc(Cl)cc3cc2C(=O)O)C(=O)O)cc1` (centres unmarked): > 250 °C (dec.). `O=C(O)c1cc2cc(Cl)ccc2nc1NC(Cc1cccnc1)C(=O)O` (centres unmarked): the melting point was > 170 °C (dec.). `O=C(O)c1cc2ccccc2nc1N[C@H](Cc1ccccc1)C(=O)O` [Example 44, 2-((R)-1-Carboxy-2-phenyl-ethylamino)-quinoline-3-carboxylic acid]: the melting point is 140 to 141.5 °C. In the case of `O=C(O)c1cc2cc(Cl)ccc2nc1NC(Cc1cccc(Oc2nc3ccc(Cl)cc3cc2C(=O)O)c1)C(=O)O` (centres unmarked) [Example 81, 2-{2-[3-(3-carboxy-6-chloro-quinolin-2-yloxy)-phenyl]-1-carboxy-ethylamino}-6-chloro-quinoline-3-carboxylic acid], the melting point was 186 to 197 °C (dec.).

Take `O=C(O)c1ccc(CC(Nc2nc3ccc(Cl)cc3cc2C(=O)O)C(=O)O)cc1` (centres unmarked): the melting point is > 180 °C (dec.). `O=C(O)c1cc2cc(Cl)ccc2nc1NC(Cc1ccc(Oc2ccc3ccccc3n2)cc1)C(=O)O` (centres unmarked) [Example 96, 2-{1-Carboxy-2-[4-(quinolin-2-yloxy)-phenyl]-ethylamino}-6-chloro-quinoline-3-carboxylic acid] registered a melting point of 136 °C.

`O=C(O)c1cc2cc(Cl)ccc2nc1NC(COCc1ccccc1)C(=O)Nc1ccccc1` (centres unmarked) [Example 117, 2-(2-Benzyloxy-1-phenylcarbamoyl-ethylamino)-6-chloro-quinoline-3-carboxylic acid] came in with a melting point of 150 to 151 °C. As for `COc1ccc(Cl)c(CC(Nc2nc3ccc(Cl)cc3cc2C(=O)O)C(=O)O)c1` (centres unmarked) [Example 68, 2-[1-Carboxy-2-(2-chloro-5-methoxy-phenyl)-ethylamino]-6-chloro-quinoline-3-carboxylic acid], the melting point was in the range of 180 to 185 °C. The same measure, in the same setting: next, `Cc1cc(C)n(CC(Nc2nc3ccc(Cl)cc3cc2C(=O)O)C(=O)O)n1` (centres unmarked) [Example 57, 2-[1-Carboxy-2-(3,5-dimethyl-pyrazol-1-yl)-ethylamino]-6-chloro-quinoline-3-carboxylic acid]: > 200 °C (dec.).
